Data on one compound can be found in EP1151753B1, “PREVENTIVE AND THERAPEUTIC AGENTS FOR ARTERIOSCLEROSIS” (CCI CORPORATION, priority 1999, dated 2000).

Data set [1] can be described thus: Lipoprotein analysis, WHHL rabbit model. The class given is in vivo, WHHL type rabbits. The settings on record: WHHL rabbits. The text has this: 1. Animal used and feeding conditions In the test, female and male WHHL type rabbits (SPF: Kitayama Labels K.K.) which were eight weeks old at the time of arrival at the laboratory were subjected to quarantine and domestication and visually inspected as to the general condition and, after the absence of abnormality was confirmed, put to use. The body weights at the time of starting administration (at the age of nine weeks) were in the range of 1.5 - 1.9 kg in the case of male rabbits and in the range of 1.4 - 1.8 kg in the case of female rabbits. Throughout the entire duration of the test, the animals were raised as accommodated one each in hanger cages of aluminum installed on a stainless steel rack inside a clean feeding chamber set at a temperature in the range of 20 - 26°, a relative humidity in the range of 40 - 70%, a number of ventilations in the range of 10 - 20 turns/hour, and an illumination time within the range of 12 hours (7.00 - 19:00). They were fed on a commercially available radioactively sterilized solid feed (made by Oriental Kobo K.K. and sold under the product code of "RC4") and they were left freely drinking the tap water delivered by an automatic water supplying device. 2. Setting dosage and method of administration The dosage of TMG was set at 800 mg/head/day. The TMG was solved in reagent grade ethanol. The produced solution was sprayed on the feed and the wet feed was left drying in the air. A mixed feed was prepared so as to contain 800 mg of TMG per 100 g of the feed. The mixed feed was given to the rabbits every morning at a rate of 100 g/day per head for 27 weeks for the sake of attaining oral consumption of the TMG. The feed for the control group was obtained by spraying ethanol alone on a feed and air-drying the wet feed. It was given to the rabbits of the control group at a rate of 100 g/day per head for 27 weeks. 3. […] The blood was centrifuged to separate blood serum and the blood serum was analyzed for the items shown in Table 5 by the use of an automatic analyzer (made by Hitachi. Ltd. and sold under the product code of "736-20"). The body weight of each rabbit was measured at the rate of once a week throughout the entire duration of the administration.
5. […] The blood serum was ultracentrifuged by Hatch and Lees method (Hatch, F. T., and Lees, R. S. (1968) Advan, Lipid Res. 6, 1-68) using a centrifuge (the rotor; Beckman 70.1 Ti) made by Beckman and sold under the product code of "L-70") to separate low specific gravity lipoprotein (1.006 < d < 1.063), with the cholesterol amount of the LDL fraction determined by the cholesterol oxidase DASO method and the amount of HDL-cholesterol determined by subjecting the blood serum to the phospho-tungstic acid magnesium salt precipitation method. […]

Data set [2] relates to cholesterol-loaded rabbits. Put plainly: Evaluation of morbid alteration of aorta (Sudan dyeing), cholesterol-loaded rabbit model. The settings on record: cholesterol-loaded NZW rabbits. The class given is in vivo, New Zealand White (NZW) type rabbits. The text has this:
In the test, female and male New Zealand White (NZW) type rabbits (SPF: Kitayama Labels K.K.) which were seven weeks old at the time of arrival at the laboratory were subjected to quarantine and two weeks' domestication and visually inspected as to the general condition and, after the absence of abnormality was confirmed, put to use. The body weights at the time of starting administration (at the age of nine weeks) were in the range of 1.8 - 2.2 kg in the case of male rabbits and in the range of 1.6 - 2.0 kg in the case of female rabbits. Throughout the entire duration of the test, the animals were raised as accommodated one each in hanger cages of aluminum installed on a stainless steel rack inside a clean feeding chamber set at a temperature in the range of 20 - 26°, a relative humidity in the range of 40 - 70%, a number of ventilations in the range of 10 - 20 turns/hour, and an illumination time within the range of 12 hours (7.00 - 19:00). They were fed on a commercially available radioactively sterilized solid feed (a product containing 1% of cholesterol, made by Oriental Kobo K.K. and sold under the product code of "RC4") and they were left freely drinking the tap water delivered by an automatic water supplying device.
The dosage of TMG was set at 800 mg/head/day. The TMG was solved in reagent grade ethanol. […]

Setting [3] is: TMG 800 mg/head/day in feed, 26th week of administration, average ± SE.

For the compound `Cc1c(C)c2c(c(C)c1O)CCC(C)(C[C@H]1O[C@H](CO)[C@@H](O)[C@H](O)[C@H]1O)O2` (stereo partly drawn) [TMG, 2-(α-D-glucopyranosyl)methyl-2,5,7,8-tetramethyl chroman-6-ol], the “activity of lowering the HDL-cholesterol” value in data set [1] (TMG 800 mg/head/day for 27 weeks) is on record as “no activity”. Besides, in data set [1] (setting [3]), the HDL-CHO turned out to be 5 ± 1 mg/dL and the LDL-CHO turned out to be 746 ± 29 mg/dL. The LDL-TMG entry in data set [1] (amount of TMG in LDL fraction by HPLC, TMG 800 mg/head/day in feed, 26th week of administration) is “not detected”. Moreover, the “Surface involvement (%)” value in data set [2] (area occupied by deposited lipid in whole area of aorta, TMG 800 mg/head/day in feed, 12th week, control 79.7 ± 3.2, p < 0.01) amounted to 50.2 ± 5.7 %. Also, the “occurrence of the atherosclerosis” value in data set [2] (TMG 800 mg/head/day for 12 weeks) was “significantly repressing”.
